Results: patent US5288709A, “Erythromycin derivatives” (priority 1991, dated 1994)
Converted amounts (≈) assume the structure as drawn. Where two headings read alike, the source gives them in different places.

Legend:
[1] = Pharmacokinetic evaluation in dogs after a 10 mg/kg dose; settings: dog, plasma; for half-life: t1/2 (biological half life); for bioavailability: % ABS (percent absorbance), from AUC (absolute bioavailability); for Cmax: Cmax (maximum concentration in blood); for Tmax: Tmax (time to achieve maximum concentration in blood)
Description: (§4) Selected compounds of the present invention were formulated as solutions in dilute lactobionic acid at a concentration of 10 or 20 mg/ml. Groups of two or three dogs were given a 10 mg macrolide/kg intravenous bolus or oral dose (by gavage). Plasma samples, obtained at selected time points from 15 minutes to 32 hours after dosing, were assayed using reverse phase HPLC with electrochemical detection (parent drug) and microbiological assay (total microbiological activity). Plasma concentration time curves were subjected to multi exponential curve fitting to determine terminal elimination half life values. Area under the curve (AUC) values, calculated by the trapezoidal method, were used to calculate absolute bioavailability.

[2] = system: Streptococcus pneumoniae (ATCC 6303); assay: In-vivo acute mouse protection assay; design: species or system Streptococcus pneumoniae; female Swiss albino mice; settings: dosed 1 and 5 h post-infection, observed 7 days
Description: (§1) An acute mouse protection test was conducted on ten mice with each of three concentrations of selected compounds of the invention. Each concentration was a four-fold dilution of the previous concentration. The initial concentration will vary with the microorganism with which the mouse is challenged.
(§2) The acute mouse protection test was conducted on female, Swiss albino mice, 18-20 grams in weight. […] To check the potency of the inoculum, a titration of the indicated test organism was carried out in control animals. The titration determines the LD50 for a particular microorganism. The treatment groups of animals were dosed orally, by gavage, or subcutaneously with the test compounds at 1 and 5 hours post-infection and observed for 7 days. The ED50 were calculated using the mortality data collected.

[3] = system: Haemophilus influenzae ATCC 43095; assay: Treatment of induced otitis media in gerbils; type: in vivo, Haemophilus influenzae; female mongolian gerbils; settings: read-out: ED50 (dose required to reduce CFUs by 90%)
Description: The effectiveness of one of the compounds of the present invention in treating otitis media was examined as desribed below. A five hour log phase culture of Haemophilus influenzae ATCC 43095 was prepared in brain heart infusion broth (BHIB) supplemented with 4% Fildes enrichment and 0.001% nicotinamide adenine dinucleotide (NAD; commerically available from Sigma Chemical Co., St. Louis, Missouri).
Immediately prior to treatment with the test compounds, middle ear aspirates from five gerbils were obtained as described below and cultured to determine the level of infection at the onset of therapy. The test compounds produced by Example 19, (9S,11S)-11-Amino-9-deoxo-11,12-deoxy-9,12-epoxyerythromycin A, was administered orally by gavage in a 0.5 mL volume beginning 17 hours post infection and continuing three times daily for two days to groups of five gerbils. As a standard, a second group of gerbils was similarly treated using erythromycin. Eighteen hours after the final treatment, the gerbils were euthanized, 0.02 mL of BHIB injected into the middle ear bulla through the tympanic membrane, and middle ear aspirates collected and cultured.
The aspirates were diluted in BHIB and plated in duplicate onto chocolate agar. Colonies were counted after overnight incubation, and bacterial counts were expressed as colony forming units (CFUs) per middle ear. […]

[4] = system: Haemophilus influenzae (ATCC 43095); assay: In-vivo acute mouse protection assay; design: species or system Haemophilus influenzae; female Swiss albino mice; settings: dosed 1 and 5 h post-infection, observed 7 days
Description: as §1, §2

[5] = system: Streptococcus pyogenes C-203; assay: In-vivo acute mouse protection assay; design: species or system Streptococcus pyogenes; female Swiss albino mice; settings: dosed 1 and 5 h post-infection, observed 7 days
Description: as §1, §2

in vivo = settings: dog, iv, 10 mg/kg, t1/2 (biological half life), microbiological assay
Description: as §4

[6] = system: Staphylococcus aureus NCTC 10649; assay: In-vitro antimicrobial activity primary screen (agar dilution MIC); type: cell-based; settings: BHI agar, 20-24 h
Procedure, shortened: (§3)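 Agar dilution in BHI agar with successive compound dilutions; inoculum 1:100 (1:10 for slow growers such as Streptococcus), applied with a Steers replicator. Incubated 35 37° C for 20-24 hours. MIC is the lowest concentration giving no growth, slight haze or sparse colonies versus the drug-free control.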

[7] = system: Staphylococcus aureus 642A; assay: as above; type: cell-based; settings: BHI agar, 20-24 h
Procedure, shortened: as §3

[8] = iv, IV 10 mg/kg, HPLC (parent drug)
[9] = iv, IV 10 mg/kg, microbiological assay
[10] = po, oral 10 mg/kg, HPLC (parent drug)
[11] = po, oral 10 mg/kg, microbiological assay
[12] = ATCC6303, 168 h, oral, read-out: ED50
[13] = ATCC6303, sc, 168 h, subcutaneous, read-out: ED50
[14] = ATCC43095, 168 h, oral, read-out: ED50

| Compound | half-life [1, 8] [h] | half-life [1, 9] [h] | bioavailability [1, 10] [%] | bioavailability [1, 11] [%] | Cmax [1, 10] [ng/mL] | Cmax [1, 11] [ng/mL] | Tmax [1, 10] [h] | Tmax [1, 11] [h] | half-life [1, 10] [h] | half-life [1, 11] [h] | ED50 [2, 12] [mg/kg] | ED50 [2, 13] [mg/kg] | ED50 [4, 14] [mg/kg] | ED50 ([5]; C203, 168 h, oral) [mg/kg] | ED50 ([5]; C203, sc, 168 h, subcutaneous) [mg/kg] | other results |
| --- | --- | --- | --- | --- | --- | --- | --- | --- | --- | --- | --- | --- | --- | --- | --- | --- |
| CC[C@H]1OC(=O)[C@H](C)[C@@H](O[C@H]2C[C@@](C)(OC)[C@@H](O)[C@H](C)O2)[C@H](C)[C@@H](O[C@@H]2O[C@H](C)C[C@H](N(C)C)[C@H]2O)[C@](C)(O)C[C@@H](C)[C@@H]2O[C@@]1(C)[C@@H](N)[C@H]2C [Example 19, (9S,11S)-11-Amino-9-deoxo-11,12-deoxy-9,12-epoxyerythromycin A] | 7.5 | 6.6 | 59 | 67 | 3200 | 3300 | 0.25 | 0.4 | 8.1 | 5.8 | < 9.4 | 1.1 | 101 | 28.9 | 2.5 | ED50 ([3]; ATCC43095, gerbil, oral gavage three times daily for two days from 17 h post infection): 46.5 mg/kg |
| CC[C@H]1OC(=O)[C@H](C)[C@@H](O[C@H]2C[C@@](C)(OC)[C@H](N)[C@H](C)O2)[C@H](C)[C@@H](O[C@@H]2O[C@H](C)C[C@H](N(C)C)[C@H]2O)[C@](C)(O)C[C@@H](C)[C@@H]2O[C@@]1(C)[C@@H](O)[C@H]2C [Example 13, (4"R,9S,11S) 4"-Amino-9-deoxo-4",12-dideoxy-9,12-epoxyerythromycin A] | 9.9 | 18.3 | 68 | 58 | 1600 | 1700 | 0.4 | 0.4 | 9.6 | 9.1 | 84.8 | – | – | 51.5 | 9.3 | ED50 ([2]; ATCC6303, sc, 168 h, subcutaneous): 4 mg/kg |
| CC[C@H]1OC(=O)[C@H](C)[C@@H](O[C@H]2C[C@@](C)(OC)[C@@H](O)[C@H](C)O2)[C@H](C)[C@@H](O[C@@H]2O[C@H](C)C[C@H](N(C)C)[C@H]2O)[C@](C)(O)C[C@@H](C)[C@@H]2O[C@@]1(C)[C@@H](O)[C@H]2C [Example 4, (9S,11S)-9-Deoxo-12-deoxy-9,12-epoxyerythromycin A] | 2.9 | 2.9 | 69 | 75 | 3900 | 4300 | 0.25 | 0.4 | 2.9 | 2.7 | 20.4 | 1.3 | 238 | 20 | 3.3 | ED50 ([4]; ATCC43095, sc, 168 h, subcutaneous, read-out: ED50): 11.3 mg/kg |
| CC[C@H]1OC(=O)[C@H](C)[C@@H](O[C@H]2C[C@@](C)(OC)[C@@H](O)[C@H](C)O2)[C@H](C)[C@@H](O[C@@H]2O[C@H](C)C[C@H](N(C)C)[C@H]2O)[C@](C)(O)C[C@@H](C)[C@@H]2O[C@@]1(C)C(=O)[C@H]2C [Example 5, (9S)-9-Deoxo-11,12-dideoxy-9,12-epoxy-11-oxoerythromycin A] | 12.2 | 14.7 | 81 | 76 | 2500 | 2500 | 4 | – | 10.2 | 10.5 | 23.7 | < 0.4 | – | 3.9 | 1.7 | – |
| CC[C@H]1OC(=O)[C@H](C)[C@@H](O[C@H]2C[C@@](C)(OC)[C@@H](O)[C@H](C)O2)[C@H](C)[C@@H](O[C@@H]2O[C@H](C)C[C@H](N(C)C)[C@H]2O)[C@](C)(O)C[C@@H](C)C(=O)[C@H](C)[C@@H](O)[C@]1(C)O [Std, Erythromycin A, reference compound] | – | – | – | 72 | – | 2500 | – | 0.3 | – | – | – | – | – | – | – | half-life (in vivo): 1.4 h; MIC [6]: 0.1 microgram/mL; MIC ([6]; Staphylococcus aureus, NCTC10649, 24 h): 0.2 µg/mL (≈ 0.273 µM); MIC [7]: 0.1 microgram/mL; MIC ([7]; Staphylococcus aureus, 642A, 24 h): 0.2 µg/mL (≈ 0.273 µM); ED50 ([3]; ATCC43095, po): > 300 mg/kg; ED50 ([4]; ATCC43095, sc, 168 h, subcutaneous): 29.7 mg/kg |
